Source: US20200172631A1, “ERBB2/HER2 MUTATIONS IN THE TRANSMEMBRANE OR JUXTAMEMBRANE DOMAIN” (GENENTECH, INC., priority 2017, published 2020)

Test system: TM/JM Her2 mutants expressed in BaF3 cells
Assay: BaF3 cell viability assay, all Her2 TM/JM mutants tested
Assay type: cell-based, human
Details: BaF3 system, all Her2 TM/JM mutants tested (FIG. 7)
Description: BaF3 cells were maintained in RPMI 1640 supplemented with 10% (v/v) fetal bovine serum (Thermo Fisher Scientific, IL), 2 mM L-glutamine, 100 U/ml penicillin, 100 mg/ml streptomycin (complete RPMI) and 2 ng/mL mouse IL-3.
BaF3 cells were cultured in complete RPMI media supplemented with recombinant murine IL-3 (mIL-3) and puromycin (1 μg/ml).
BaF3 cells survival assay was performed as described previously (Jaiswal et al., 2011). Briefly, stable cells expressing Her2 WT or mutants were washed twice times with 1× PBS and plated in 96-well plates (10,000 cells/well) in replicates of 12 in complete RPMI medium without IL-3. Cell viability was measured using the Cell Titer Glo Luminescence Cell Viability Kit (Promega, CA), and plates were read on a Synergy 2 (Biotek Instruments) luminescence plate reader. Relative survival reported was calculated as a ratio of relative luciferase activity (RLU) at day 4 over RLU measured at the day 0. The mutant Her2 constructs were tested in BaF3 either alone or in the presence of WT Flag tagged Her2 as indicated.
Viable cell number was assessed 4 days after treatment using Cell Titer-Glo Luminescent cell viability assay kit (Promega, WI). Non-linear regression plot of antibodies and their fractions or inhibitors were generated and calculation of IC50 was performed using GraphPad Prism 5.00 (GraphPad Software, CA). […]

Structure (SMILES)	response of Her2 TM/JM mutants to ERBB2 kinase inhibitory small molecule drugs, effect on cell survival
CS(=O)(=O)CCNCc1ccc(-c2ccc3ncnc(Nc4ccc(OCc5cccc(F)c5)c(Cl)c4)c3c2)o1 [lapatinib]	respond
CCOc1cc2ncc(C#N)c(Nc3ccc(OCc4ccccn4)c(Cl)c3)c2cc1NC(=O)/C=C/CN(C)C [neratinib]	respond
